In general, melting point refers to the temperature, or range, at which the solid turns liquid. By IC50 is commonly meant the midpoint of a concentration-inhibition curve. The low end stands for greater potency, the high end for weaker potency.

Structures are written as SMILES. Bounds are passed on as bounds.

Data set [1] concerns the target T1, CXCR2 receptor in human neutrophils (Homo sapiens, UniProt P25025).
T1 construct: Human nutrophils were prepared from EDTA-treated peripheral blood; endogenous in cells; host or cells: human neutrophils from peripheral blood
T1 sequence (P25025 1-360): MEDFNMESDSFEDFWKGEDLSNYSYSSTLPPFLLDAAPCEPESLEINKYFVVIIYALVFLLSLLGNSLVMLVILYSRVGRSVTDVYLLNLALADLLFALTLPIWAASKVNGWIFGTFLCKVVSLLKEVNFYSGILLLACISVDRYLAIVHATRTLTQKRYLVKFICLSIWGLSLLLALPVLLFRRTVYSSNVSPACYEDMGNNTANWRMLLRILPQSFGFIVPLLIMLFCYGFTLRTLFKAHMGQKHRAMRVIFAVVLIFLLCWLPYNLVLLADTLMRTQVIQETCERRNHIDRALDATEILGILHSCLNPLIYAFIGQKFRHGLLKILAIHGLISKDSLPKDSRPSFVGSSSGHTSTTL
In words: Intracellular calcium mobilisation assay (GROα, fluo-3, FLIPR). To be noted: A50 concentration of GROα, fluo-3 fluorescence. In kind it is cell-based. The protocol:
Intracellular Calcium Mobilisation Assay
Human nutrophils were prepared from EDTA-treated peripheral blood, as previously described (Baly et al. (1997) Methods in Enzymology 287 pp 70-72), in storage buffer [Tyrode's salt solution (137 mM NaCl, 2.7 mM KCl, 0.4 mM NaH2PO4) supplemented with 5.7 mM glucose and 10 mM HEPES (pH 7.4)].
The chemokine GROα (human, recombinant) was purchased from R&D Systems (Abingdon, U.K.). All other chemicals were of analytical grade. Changes in intracellular free calcium were measured fluorometrically by loading neutrophils with the calcium sensitive fluorescent dye, fluo-3, as described previously (Merritt et al. (1990) Biochem. J. 269, pp513-519). Cells were loaded for 1 hour at 37° C. in loading buffer (storage buffer with 0.1% (w/v) gelatin) containing 5 μM fluo-3 AM ester, washed with loading buffer and then resuspended in Tyrode's salt solution supplemented with 5.7 mM glucose, 0.1% (w/v) bovine serum albumin (BSA), 1.8 mM CaCl2 and 1 mM MgCl2. […]
A compound of formula (I) according to the Examples was pre-dissolved in DMSO and added to a final concentration of 0.1% (v/v) DMSO. Assays were initiated by the addition of an A50 concentration of GROα and the transient increase in fluo-3 fluorescence (λEx=490 nm and λEm=520 nm) monitored using a FLIPR (Fluorometric Imaging Plate Reader, Molecular Devices, Sunnyvale, U.S.A.). […]
(Calcium assays in cells follow changes in intracellular calcium, usually with a dye or a luminescent sensor.)

The next data set concerns the target T2, hrCXCR2 (Homo sapiens, UniProt P25025).
T2 construct: expressed in transfected cells; host or cells: HEK 293 cells (ECACC No. 85120602), membrane preparation
T2 sequence (P25025 1-360): T1 sequence (P25025 1-360)
In words: Ligand binding assay ([125I]IL-8, HEK 293 membranes). As to conditions: displacement of ~50 pM [125I]IL-8 from membranes of HEK 293 cells expressing hrCXCR2, 1.5 hours at room temperature. An excerpt:
[^125I]IL-8 (human, recombinant) was purchased from Amersham, U.K. with a specific activity of 2,000 Ci/mmol. All other chemicals were of analytical grade. High levels of hrCXCR2 were expressed in HEK 293 cells (human embryo kidney 293 cells ECACC No. 85120602) (Lee et al. (1992) J. Biol. Chem. 267 pp 16283-16291). hrCXC2 cDNA was amplified and cloned from human neutrophil mRNA. The DNA was cloned into PCRScript (Stratagene) and clones were identified using DNA. The coding sequence was sub-cloned into the eukaryotic expression vector RcCMV (Invitrogen). Plasmid DNA was prepared using Quiagen Megaprep 2500 and transfected into HEK 293 cells using Lipofectamine reagent (Gibco BRL). Cells of the highest expressing clone were harvested in phosphate-buffered saline containing 0.2%(w/v) ethylenediaminetetraacetic acid (EDTA) and centrifuged (200 g, 5 min.). The cell pellet was resuspended in ice cold homogenisation buffer [10 mM HEPES (pH 7.4), 1 mM dithiothreitol, 1 mM EDTA and a panel of protease inhibitors (1 mM phenyl methyl sulphonyl fluoride, 2 μg/ml soybean trypsin inhibitor, 3 mM benzamidine, 0.5 μg/ml leupeptin and 100 μg/ml bacitracin)] and the cells left to swell for 10 minutes. […] The backing plate was removed from the MultiScreen plate assembly, the filters dried at room temperature, punched out and then counted on a Cobra γ-counter.

With `CC(CO)(CO)Nc1nc(SCc2cccc(F)c2F)nc2[nH]c(=O)sc12.[Na]`, the melting point was 238 °C (dec.).
Compound `CC(CO)(CO)Nc1nc(SCc2cccc(F)c2F)nc2[nH]c(=O)sc12` [compound of formula (I), 5-[[(2,3-Difluorophenyl)methyl]thio]-7-[[2-hydroxy-1-(hydroxymethyl) 1 methylethyl]amino]-thiazolo[4,5-d]pyrimidin-2(3H)-one] displayed a melting point of 230 to 233 °C. Further, in data set [1], the “antagonism of GROα-induced intracellular calcium increase” value is given as “antagonist”. In addition, the IC50 at hrCXCR2 is less than 10 µM.

For the origin of these results see patent publication US7585867B2, “Substituted thiazolo[4,5-d]pyrimidin-2(3H)-one” (AstraZeneca AB, priority 2002, dated 2009).
